{
  "source": "patent US20100152303A1",
  "about": "“AGENTS AND METHOD FOR […] […]” (priority 2000, published 2010)",
  "key": {"[1]": {"conditions": "cited from earlier work"}, "ERP57": {"test_system": "ERP57", "assay": "Effect of methoxychlor on ERP57 concentration in rat livers (immunoelectrophoresis of liver microsomes)", "format": "in vivo", "conditions": "male CD rats, gavage in corn oil, 14 days, dosages 10, 50, and 100 mg/kg/day", "from_the_text": "The purpose of this experiment was to determine the effect of administering varying levels of methoxychlor for 14 days on the levels of the microsomal protein ERP57 in mammalian tissues.\nMethoxychlor, potassium chloride, and Tris were purchased from Sigma Chemicals (St. Louis, Mo.). The BCA (Bicinchoninic Acid) Assay kits were purchased from Pierce Chemical Company (Rockford, Ill.). Agarose was purchased from Boehringer Mannheim (Indianapolis, Ind.). Polyclonal antibodies to the ERP57 were developed in laying hens as previously described (Srivastava et al. 1991, J. Biol. Chem. 266: 20337-20344; Chen et al. 1996, Biochemistry 25: 8299-8306).\nThe animals used in these studies were 150-200 g fed, male, CD rats from Harlan Laboratories. […] The microsomal suspensions were aliquoted and stored at −80° C. until analyzed.\nThe concentrations of total microsomal protein were then determined via the BCA assay. […]\nThe concentration of ERP57 in the samples was determined with immunoelectrophoresis. […]\nThe indicator dye was a combination of nitroblue tetrazolium and 5-bromo-4-chloro-3-indoyl phosphate from Bio Rad (Richmond, Calif.). […] The densities of the stained bands were determined on a flat bed scanner from UMAX (Taiwan, China). The scans were analyzed using NIH Image (version 1.54) on a PowerPC (Apple Computer). The blank for each band was determined from the adjacent, unreacted area in the lane."}},
  "data": [
    {"smiles": "COc1ccc(C(c2ccc(OC)cc2)C(Cl)(Cl)Cl)cc1", "note": "[methoxychlor, 1,1,1-trichloro-2,2-bis-(4-methoxyphenyl)ethane]", "values": [
      {"measurement": "rat oral LD50", "setting": "[1]", "result": "> 6000", "unit": "mg/kg"},
      {"measurement": "relative concentration of ERP57 in the rat liver, normalized by total microsomal protein", "setting": "ERP57", "result": "significant increase"}
    ]}
  ]
}
